US11053250B2, “Pyrrolo[1,2-b]pyridazine derivatives” (Gilead Sciences, Inc., priority 2018, dated 2021)

Columns and labels:
TNFα = test: IRAK4 Monocyte TNFα Cell Based Assay; conditions: cryopreserved human monocytes, LPS 50 pg/ml stimulation, TNFα by TR-FRET
Summary of the method: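 Cells (5,000/well) preincubated with compound 1 h at 37° C (0.1% DMSO), then stimulated 4 h with 50 pg/ml LPS. Supernatant TNFα quantified by TR-FRET (665/615 nm ratio). Percent of control scaled between unstimulated (0%) and LPS-stimulated (100%) wells.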

IRAK4 enzyme = IRAK4 enzyme (Homo sapiens (Human), UniProt Q9NWZ3); test: IRAK4 Biochemical Assay (TR-FRET/HTRF); conditions: 0.75 nM IRAK4, 500 μM ATP, STK1 peptide
Summary of the method: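 Compound was preincubated 15 min with 0.75 nM IRAK4 and 2 µM STK1 peptide. Reaction ran 120 min at room temperature with 500 µM ATP in HEPES pH 7.0 buffer (5 mM MgCl2, 1 mM DTT), then HTRF detection of phosphopeptide as the 665/615 nm ratio. % inhibition is relative to no-inhibitor and saturating-staurosporine controls.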

Chain of IRAK4 enzyme (Q9NWZ3 whole entry): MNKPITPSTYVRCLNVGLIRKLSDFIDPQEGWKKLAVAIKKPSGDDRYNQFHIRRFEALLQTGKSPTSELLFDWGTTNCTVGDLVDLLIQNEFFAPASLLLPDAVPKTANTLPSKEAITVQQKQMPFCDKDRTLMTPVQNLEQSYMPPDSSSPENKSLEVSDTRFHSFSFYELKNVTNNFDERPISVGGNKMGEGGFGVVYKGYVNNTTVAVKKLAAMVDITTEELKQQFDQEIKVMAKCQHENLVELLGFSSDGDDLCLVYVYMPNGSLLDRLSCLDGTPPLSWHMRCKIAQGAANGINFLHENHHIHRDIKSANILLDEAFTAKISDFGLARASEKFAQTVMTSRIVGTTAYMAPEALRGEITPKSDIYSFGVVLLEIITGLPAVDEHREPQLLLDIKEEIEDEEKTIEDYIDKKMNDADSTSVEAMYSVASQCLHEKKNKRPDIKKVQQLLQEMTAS

EC50 (TNFα; Monocyte)	IC50 (IRAK4 enzyme)	EC50 (TNFα)	Structure (SMILES)
0.162 µM	0.002 µM		CC(C)Nc1cc(-c2ccc3cc(C#N)cnn23)ncc1-c1cn(C)nn1 [Compound 55, 7-(4-(isopropylamino)-5-(1-methyl-1H-1,2,3-triazol-4-yl)pyridin-2-yl)pyrrolo[1,2-b]pyridazine-3-carbonitrile]
0.042 µM	< 0.001 µM		COC(=O)Cn1cc(-c2cnc(-c3ccc4cc(C#N)cnn34)cc2NC(C)C)nn1 [Compound 56, methyl 2-(4-(6-(3-cyanopyrrolo[1,2-b]pyridazin-7-yl)-4-(isopropylamino)pyridin-3-yl)-1H-1,2,3-triazol-1-yl)acetate]
1.12 µM	0.014 µM		CC(C)Nc1cc(-c2ccc3cc(C#N)cnn23)ncc1-c1cn(C23CC(C2)C3)nn1 [Compound 57, 7-(5-(1-(bicyclo[1.1.1]pentan-1-yl)-1H-1,2,3-triazol-4-yl)-4-(isopropylamino)pyridin-2-yl)pyrrolo[1,2-b]pyridazine-3-carbonitrile]
1.24 µM	0.012 µM		CC(C)Nc1cc(-c2ccc3cc(C#N)cnn23)ncc1-c1cn(C2(C(F)(F)F)CC2)nn1 [Compound 58, 7-(4-(isopropylamino)-5-(1-(1-(trifluoromethyl)cyclopropyl)-1H-1,2,3-triazol-4-yl)pyridin-2-yl)pyrrolo[1,2-b]pyridazine-3-carbonitrile]
0.058 µM	< 0.001 µM		CC(C)Nc1cc(-c2ccc3cc(C#N)cnn23)ncc1-c1cn(C2CCOCC2)nn1 [Compound 59, 7-(4-(isopropylamino)-5-(1-(tetrahydro-2H-pyran-4-yl)-1H-1,2,3-triazol-4-yl)pyridin-2-yl)pyrrolo[1,2-b]pyridazine-3-carbonitrile]
0.184 µM	0.002 µM		CC(C)Nc1cc(-c2ccc3cc(C#N)cnn23)ncc1-n1cc(C2CCOCC2)nn1 [Compound 60, 7-(4-(isopropylamino)-5-(4-(tetrahydro-2H-pyran-4-yl)-1H-1,2,3-triazol-1-yl)pyridin-2-yl)pyrrolo[1,2-b]pyridazine-3-carbonitrile]
	0.002 µM	0.075 µM	CC(=O)N[C@H]1CC[C@H](c2cn(-c3cnc(-c4ccc5cc(C#N)cnn45)cc3NC(C)C)nn2)CC1 [Compound 61, N-((1r,4r)-4-(1-(6-(3-cyanopyrrolo[1,2-b]pyridazin-7-yl)-4-(isopropylamino)pyridin-3-yl)-1H-1,2,3-triazol-4-yl)cyclohexyl)acetamide]
	0.002 µM	0.121 µM	CC(C)Nc1cc(-c2ccc3cc(C#N)cnn23)ncc1-n1cc([C@H]2CC[C@H](NC(=O)OC(C)(C)C)CC2)nn1 [Compound 64, tert-butyl ((1r,4r)-4-(1-(6-(3-cyanopyrrolo[1,2-b]pyridazin-7-yl)-4-(isopropylamino)pyridin-3-yl)-1H-1,2,3-triazol-4-yl)cyclohexyl)carbamate]
